Assay results reported in patent publication US9751874B2, “Hydroxy containing FXR (NR1H4) modulating compounds” (Gilead Sciences, Inc., priority 2014, dated 2017).

How the values were obtained:
[1] = biological target: T1, human FXR alpha ligand binding domain (Homo sapiens, UniProt Q96RI1); test: FRET activity assay (ligand mediated cofactor peptide interaction, LANCE); format: biochemical; details: GST-FXR-LBD / biotinylated SRC-1 peptide (676-700), read-out: F EC50
T1 construct: made in house; host or cells: E. coli BL21(DE3), vector pDEST15
T1 sequence (Q96RI1 187-472 isoform Q96RI1-2): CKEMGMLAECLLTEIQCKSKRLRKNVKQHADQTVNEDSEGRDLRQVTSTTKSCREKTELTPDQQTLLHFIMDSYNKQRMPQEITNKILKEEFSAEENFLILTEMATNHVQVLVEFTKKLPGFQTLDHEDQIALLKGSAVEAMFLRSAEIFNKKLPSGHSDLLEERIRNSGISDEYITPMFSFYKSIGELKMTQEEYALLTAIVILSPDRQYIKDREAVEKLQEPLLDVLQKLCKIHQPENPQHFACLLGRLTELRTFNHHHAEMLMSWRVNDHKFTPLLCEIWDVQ
Procedure: Determination of a ligand mediated cofactor peptide interaction to quantify ligand binding to the nuclear receptor FXR was performed as follows: Preparation of human FXR alpha ligand binding domain: The human FXRalpha LBD was expressed in E. coli strain BL21(DE3) as an N-terminally GST tagged fusion protein. The DNA encoding the FXR ligand binding domain was cloned into vector pDEST15 (Invitrogen). Expression was under control of an IPTG inducible T7 promoter. The amino acid boundaries of the ligand binding domain were amino acids 187-472 of Database entry NM_005123 (RefSeq). Expression and purification of the FXR-LBD: An overnight preculture of a transformed E. coli strain was diluted 1:20 in LB-Ampicillin medium and grown at 30° C. to an optical density of OD600=0.4-0.6. Gene expression was then induced by addition of 0.5 mM IPTG. Cells were incubated an additional 6 h at 30° C., 180 rpm. Cells were collected by centrifugation (7000×g, 7 min, rt). Per liter of original cell culture, cells were resuspended in 10 mL lysis buffer (50 mM Glucose, 50 mM Tris pH 7.9, 1 mM EDTA and 4 mg/mL lysozyme) and left on ice for 30 min. Cells were then subjected to sonication and cell debris removed via centrifugation (22000×g, 30 min, 4° C.). Per 10 mL of supernatant 0.5 mL prewashed Glutathione 4B sepharose slurry (Qiagen) was added and the suspension kept slowly rotating for 1 h at 4° C. Glutathione 4B sepharose beads were pelleted by centrifugation (2000×g, 15 sec, 4° C.) and washed twice in wash buffer (25 mM Tris, 50 mM KCl, 4 mM MgCl2 and 1M NaCl). The pellet was resuspended in 3 mL elution buffer per liter of original culture (elution buffer: 20 mM Tris, 60 mM KCl, 5 mM MgCl2 and 80 mM glutathione added immediately prior to use as powder). The suspension was left rotating for 15 min at 4° C., the beads pelleted and eluted again with half the volume of elution buffer than the first time. The eluates were pooled and dialysed overnight in 20 mM Hepes buffer (pH 7.5) containing 60 mM KCl, 5 mM MgCl2 as well as 1 mM dithiothreitol and 10% (v/v) glycerol. The protein was analysed by SDS-Page.
The method measures the ability of putative ligands to modulate the interaction between the purified bacterial expressed FXR ligand binding domain (LBD) and a synthetic biotinylated peptide based on residues 676-700 of SRC-1 (LCD2, 676-700). The sequence of the peptide used was B—[…]—COOH where the N-terminus was biotinylated (B). The ligand binding domain (LBD) of FXR was expressed as fusion protein with GST in BL-21 cells using the vector pDEST15. Cells were lysed by sonication, and the fusion proteins purified over glutathione sepharose (Pharmacia) according to the manufacturers instructions. For screening of compounds for their influence on the FXR-peptide interaction, the Perkin Elmer LANCE technology was applied. This method relies on the binding dependent energy transfer from a donor to an acceptor fluorophor attached to the binding partner of interest. For ease of handling and reduction of background from compound fluorescence LANCE technology makes use of generic fluorophore labels and time resolved detection Assays were done in a final volume of 25 μL in a 384 well plate, in a Tris-based buffer (20 mM Tris-HCl pH 7.5; 60 mM KCl, 5 mM MgCl2; 35 ng/μL BSA), containing 20-60 ng/well recombinantly expressed FXR-LBD fused to GST, 200-600 nM N-terminally biotinylated peptide, representing SRC1 aminoacids 676-700, 200 ng/well Streptavidin-xIAPC conjugate (Prozyme) and 6-10 ng/well Eu W1024-antiGST (Perkin Elmer). DMSO content of the samples was kept at 1%. After generation of the assay mix and diluting the potentially FXR modulating ligands, the assay was equilibrated for 1 h in the dark at rt in FIA-plates black 384 well (Greiner). The LANCE signal was detected by a Perkin Elmer VICTOR2VTM Multilabel Counter. The results were visualized by plotting the ratio between the emitted light at 665 and 615 nm. […]

[2] = biological target: T2, FXR ligand binding domain (Homo sapiens, UniProt Q96RI1); test: Mammalian One Hybrid (M1H) assay, Gal4 promoter driven transactivation in HEK293 cells; format: cell-based; details: Gal4-FXR-LBD luciferase reporter, 16 h
T2 construct: expressed in transfected cells; host or cells: HEK293 cells, transiently transfected with pCMV-BD-FXR-LBD, pFR-Luc and pRL-CMV
T2 sequence (Q96RI1 187-472 isoform Q96RI1-2): T1 sequence (Q96RI1 187-472 isoform Q96RI1-2)
Procedure: Mammalian One Hybrid (M1H) Assay
Determination of a ligand mediated Gal4 promoter driven transactivation to quantify ligand binding mediated activation of FXR was performed as follows: The cDNA part encoding the FXR ligand binding domain was cloned into vector pCMV-BD (Stratagene) as a fusion to the yeast GAL4 DNA binding domain under the control of the CMV promoter. The amino acid boundaries of the ligand binding domain were amino acids 187-472 of Database entry NM_005123 (RefSeq). The plasmid pFR-Luc (Stratagene) was used as the reporter plasmid, containing a synthetic promoter with five tandem repeats of the yeast GAL4 binding sites, driving the expression of the Photinus pyralis (American firefly) luciferase gene as the reporter gene. In order to improve experimental accuracy the plasmid pRL-CMV (Promega) was cotransfected. pRL-CMV contains the constitutive CMV promoter, controlling the expression of the Renilla reniformis luciferase. All Gal4 reporter gene assays were done in HEK293 cells (obtained from DSMZ, Braunschweig, Germany) grown in MEM with L-Glutamine and Earle's BSS supplemented with 10% fetal bovine serum, 0.1 mM nonessential amino acids, 1 mM sodium pyruvate, and 100 units Penicilin/[…] per mL at 37° C. in 5% CO2. Medium and supplements were obtained from Invitrogen. For the assay, […] cells were plated per well in 96 well plates in 100 μL per well MEM without Phenol Red and L-Glutamine and with Earle's BSS supplemented with 10% charcoal/dextran treated FBS (HyClone, South Logan, Utah), 0.1 mM nonessential amino acids, 2 mM glutamine, 1 mM sodium pyruvate, and 100 units Penicilin/[…] per mL, incubated at 37° C. in 5% CO2. The following day the cells were >90% confluence. Medium was removed and cells were transiently transfected using 20 μL per well of a OptiMEM—polyethylene-imine-based transfection-reagent (OptiMEM, Invitrogen; Polyethyleneimine, Aldrich Cat No. 40,827-7) including the three plasmids described above. MEM with the same composition as used for plating cells was added 2-4 h after addition of transfection mixture. Then compound stocks, prediluted in MEM were added (final vehicle concentration not exceeding 0.1%). Cells were incubated for additional 16 h before firefly and renilla luciferase activities were measured sequentially in the same cell extract using a Dual-Light-Luciferase-Assay system (Dyer et al., Anal. Biochem. 2000, 282, 158-161). All experiments were done in triplicates.

OC1(c2nc3ccccc3s2)C2CC3CC1CC(OCc1c(-c4c(Cl)cccc4Cl)noc1C1CC1)(C3)C2 [Example 24a, (1R,2r,3S,5s,7s)-2-(Benzo[d]thiazol-2-yl)-5-((5-cyclopropyl-3-(2,6-dichlorophenyl)isoxazol-4-yl)methoxy)adamantan-2-ol]
EC50 [1]: 49 nM
EC50 [2]: 140 nM

O=C(O)c1c(F)cc2nc([C@]3(O)CC[C@@H](OCc4c(-c5c(Cl)cccc5Cl)noc4C4CC4)CC3)sc2c1F [Example 14-2, 2-((1s,4s)-4-((5-Cyclopropyl-3-(2,6-dichlorophenyl)isoxazol-4-yl)methoxy)-1-hydroxycyclohexyl)-5,7-difluorobenzo[d]thiazole-6-carboxylic acid]
EC50 [1]: 32 nM
EC50 [2]: 2700 nM

O=C(O)c1cc(F)c2nc([C@]3(O)CC[C@@H](OCc4c(-c5c(Cl)cccc5Cl)noc4C4CC4)CC3)sc2c1 [Example 11-31, 2-((1s,4s)-4-((5-cyclopropyl-3-(2,6-dichlorophenyl)isoxazol-4-yl)methoxy)-1-hydroxycyclohexyl)-4-fluorobenzo[d]thiazole-6-carboxylic acid]
EC50 [1]: 50 nM
EC50 [2]: 130 nM

O=Cc1nsc2ccc([C@]3(O)CC[C@@H](OCc4c(-c5c(Cl)cccc5Cl)noc4C4CC4)CC3)cc12 [Example 32, 5-((1s,4s)-4-((5-Cyclopropyl-3-(2,6-dichlorophenyl)isoxazol-4-yl)methoxy)-1-hydroxycyclohexyl)benzo[d]isothiazole-3-carbaldehyde]
EC50 [1]: 190 nM
EC50 [2]: 400 nM

O=C(O)c1ccc2nc([C@]3(O)CC[C@@H](OCc4c(C5CCC(F)(F)CC5)noc4C4CC4)CC3)sc2c1 [Example 11-1, 2-((1s,4s)-4-((5-Cyclopropyl-3-(4,4-difluorocyclohexyl)isoxazol-4-yl)methoxy)-1-hydroxycyclohexyl)benzo[d]thiazole-6-carboxylic acid]
EC50 [1]: 2200 nM
EC50 [2]: > 3000 nM

O=C(O)CNC(=O)c1cc(F)c2nc([C@]3(O)[C@@H]4CC[C@H]3C[C@H](OCc3c(-c5c(Cl)cccc5Cl)noc3C3CC3)C4)sc2c1 [Example 38, 2-(2-((1R,3s,5S,8r)-3-((5-Cyclopropyl-3-(2,6-dichlorophenyl)isoxazol-4-yl)methoxy)-8-hydroxybicyclo[3.2.1]octan-8-yl)-4-fluorobenzo[d]thiazole-6-carboxamido)acetic acid]
EC50 [1]: 3 nM
EC50 [2]: 1270 nM

O=C(O)c1cc(F)c2nc(C3(O)C[C@H]4CC(OCc5c(-c6c(Cl)cccc6Cl)noc5C5CC5)C[C@H]4C3)sc2c1 (stereo partly drawn) [Example 11-46, 2-((3aR,6aS)-5-((5-Cyclopropyl-3-(2,6-dichlorophenyl)isoxazol-4-yl)methoxy)-2-hydroxyoctahydropentalen-2-yl)-4-fluorobenzo[d]thiazole-6-carboxylic acid]
EC50 [1]: 44 nM
EC50 [2]: 180 nM

O=C(O)c1ccc2nc(C3(O)CCC(OCc4c(-c5c(Cl)cccc5Cl)noc4C4CC4)C3)sc2c1 (stereo not drawn) [Example 11-57, 2-(3-((5-Cyclopropyl-3-(2,6-dichlorophenyl)isoxazol-4-yl)methoxy)-1-hydroxy-cyclopentyl)benzo[d]thiazole-6-carboxylic acid]
EC50 [1]: 31 nM
EC50 [2]: 29 nM

O=C(O)c1cc2sc([C@]3(O)CC[C@@H](OCc4c(-c5c(Cl)cccc5Cl)noc4C4CC4)CC3)nc2cc1F [Example 11-20, 2-((1s,4s)-4-((5-Cyclopropyl-3-(2,6-dichlorophenyl)isoxazol-4-yl)methoxy)-1-hydroxycyclohexyl)-5-fluorobenzo[d]thiazole-6-carboxylic acid]
EC50 [1]: 180 nM
EC50 [2]: 1500 nM

O=C(O)c1cnc2cc([C@]3(O)CC[C@@H](OCc4c(-c5c(Cl)cccc5Cl)noc4C4CC4)CC3)ccc2c1 [Example 11-43, 7-((1s,4s)-4-((5-Cyclopropyl-3-(2,6-dichlorophenyl)isoxazol-4-yl)methoxy)-1-hydroxycyclohexyl)quinoline-3-carboxylic acid]
EC50 [1]: 16 nM
EC50 [2]: 1800 nM

O=C(O)Cc1ccc([C@]2(O)CC[C@@H](OCc3c(-c4c(Cl)cccc4Cl)noc3C3CC3)CC2)c(F)c1 [Example 11-8, 2-(4-((1s,4s)-4-((5-Cyclopropyl-3-(2,6-dichlorophenyl)isoxazol-4-yl)methoxy)-1-hydroxycyclohexyl)-3-fluorophenyl)acetic acid]
EC50 [1]: 8000 nM
EC50 [2]: > 3000 nM

O=c1nc(-c2cc(F)c3nc([C@]4(O)[C@@H]5CC[C@H]4C[C@H](OCc4c(-c6c(Cl)cccc6Cl)noc4C4CC4)C5)sc3c2)[nH]o1 [Example 36, 3-(2-((1R,3s,5S,8r)-3-((5-Cyclopropyl-3-(2,6-dichlorophenyl)isoxazol-4-yl)methoxy)-8-hydroxybicyclo[3.2.1]octan-8-yl)-4-fluorobenzo[d]thiazol-6-yl)-1,2,4-oxadiazol-5(2H)-one]
EC50 [1]: 4.6 nM
EC50 [2]: 37 nM
